{
  "source": "paper PMC5794198",
  "about": "“Inhibitors of Trypanosoma cruzi Sir2 related protein 1 as potential drugs against Chagas disease” (PLoS Neglected Tropical Diseases, 2018)",
  "key": {"MDCK cells": {"test_system": "MDCK cells", "test": "MTT cytotoxicity on MDCK cells", "format": "cell-based", "settings": "MTT", "description": "(§1) To evaluate toxicity towards mammalian cell lines (hepatocytes (Seralab), neurons and MDCK cells (ATCC); a renal cell line from dogs), all the compounds were assayed with MTT [66]. Additionally, for cardiotoxicity evaluation, where toxic effects in cardiomyocytes could be affecting their function before being lethal, a hERG assay was performed according to the manufacturer’s protocol Predictor hERG Fluorescence Polarization Assay (Invitrogen). Briefly, inhibition of hERG channel was analysed by competition of BNIPSpd and a high-affinity red fluorescent hERG channel ligand. BNIPSpd (9) was mixed with the ligand and membranes containing hERG channel, incubated for 2 hrs at RT and the fluorescence polarization was measured using 530 / 590 nm ex/em filters using the Synergy 2 plate reader (Biotek)."}, "[1]": {"test": "MTT cytotoxicity on MDCK cells", "format": "cell-based", "settings": "dog, MDCK; CC50 cell line / EC50 T. cruzi; read-out: Selectivity Index, MDCK cells", "description": "as §1"}, "T. cruzi Y strain (Luc+)": {"test_system": "T. cruzi Y strain (Luc+)", "test": "Mouse model of T. cruzi infection, bioluminescence imaging", "format": "in vivo, BALB/c mice", "settings": "5 mg/kg/day intravenously for 4 consecutive days from day 7 of infection; listed as BNIPSpd (9)", "description": "To evaluate BNIPSpd (9) efficacy in vivo, five- to six-week-old female BALB/c mice (Charles River) and infected with T. cruzi trypomastigotes expressing luciferase. Parasites were collected from the supernatants of a monolayer of Vero infected cells, washed and suspended in PBS-glucose 0.2%, and injected intraperitoneally (1 x 10^4 per mouse). After 7 days of infection, mice were treated with drugs for 4 consecutive days orally with (benznidazole in 20% Kolliphor HS 15) or intravenously with (BNIPSpd (9) in 10% DMSO) at a dose of 100 or 5 mg/kg/day, respectively. Infection and treatment efficiency were evaluated following subcutaneous injection of 2.1 mg of luciferin and through live imaging using an IVIS Lumina LT (Perkin Elmer). Images of the animals were analysed using the Living Image software (Perkin Elmer).\nSupplementary file pntd.0006180.s006.tif: S5 Fig In vivo efficacy testing of BNIPSpd (9). A) Mice were infected with 10^4 Luc^+ trypomastigotes by intraperitoneal injection. […] In the lower panel, bioluminescence signal of whole mice represented in average radiance (photons/sec/cm^2/sr) quantified before and after treatment. […] B) Snapshot Pharmacokinetics of BNIPSpd (9) in BALB/c mice by quantification of BNIPSpd (9) in the blood of mice by UHPLC-MS/MS ESI+ at different time-points after administration of a 5 mg/kg dose by intravenous injection. […]"}, "hERG channel": {"target": "T1, hERG channel (Homo sapiens, UniProt Q12809)", "T1 construct": "purchased Invitrogen", "T1 sequence (Q12809 whole entry)": "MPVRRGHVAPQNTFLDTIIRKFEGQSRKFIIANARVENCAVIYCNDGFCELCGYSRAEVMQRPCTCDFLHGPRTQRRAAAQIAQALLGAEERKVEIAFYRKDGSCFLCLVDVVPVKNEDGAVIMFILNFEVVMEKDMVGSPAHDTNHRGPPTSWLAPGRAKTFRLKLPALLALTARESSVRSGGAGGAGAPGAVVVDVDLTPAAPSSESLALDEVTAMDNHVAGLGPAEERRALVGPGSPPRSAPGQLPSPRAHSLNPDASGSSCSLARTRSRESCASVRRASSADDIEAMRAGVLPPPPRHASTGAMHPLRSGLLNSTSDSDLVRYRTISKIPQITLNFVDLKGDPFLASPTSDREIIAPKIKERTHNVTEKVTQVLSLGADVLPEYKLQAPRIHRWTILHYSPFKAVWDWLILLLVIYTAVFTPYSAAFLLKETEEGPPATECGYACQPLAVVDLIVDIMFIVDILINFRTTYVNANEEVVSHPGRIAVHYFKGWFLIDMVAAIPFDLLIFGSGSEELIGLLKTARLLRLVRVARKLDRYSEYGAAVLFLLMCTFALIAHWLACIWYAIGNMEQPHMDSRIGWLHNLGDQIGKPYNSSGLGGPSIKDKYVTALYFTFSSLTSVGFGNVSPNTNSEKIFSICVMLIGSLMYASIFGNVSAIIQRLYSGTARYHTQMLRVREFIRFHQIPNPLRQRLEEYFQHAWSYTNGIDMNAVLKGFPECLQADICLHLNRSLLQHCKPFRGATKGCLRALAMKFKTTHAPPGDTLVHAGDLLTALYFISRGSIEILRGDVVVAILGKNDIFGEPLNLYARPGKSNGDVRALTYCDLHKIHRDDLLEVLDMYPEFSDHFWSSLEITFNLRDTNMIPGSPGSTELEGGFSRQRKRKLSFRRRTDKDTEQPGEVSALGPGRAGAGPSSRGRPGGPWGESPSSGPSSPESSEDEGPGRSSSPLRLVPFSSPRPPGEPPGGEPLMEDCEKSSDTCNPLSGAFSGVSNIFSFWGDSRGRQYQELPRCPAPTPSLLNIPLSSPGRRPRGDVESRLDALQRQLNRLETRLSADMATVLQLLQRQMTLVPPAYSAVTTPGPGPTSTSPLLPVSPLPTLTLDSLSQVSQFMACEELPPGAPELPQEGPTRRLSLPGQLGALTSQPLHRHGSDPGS", "test": "Predictor hERG Fluorescence Polarization Assay", "format": "binding", "description": "as §1"}, "TcSir2rp1": {"target": "TcSir2rp1 (Trypanosoma cruzi, UniProt Q4DVL9)", "sequence (Q4DVL9 entry or part of it)": "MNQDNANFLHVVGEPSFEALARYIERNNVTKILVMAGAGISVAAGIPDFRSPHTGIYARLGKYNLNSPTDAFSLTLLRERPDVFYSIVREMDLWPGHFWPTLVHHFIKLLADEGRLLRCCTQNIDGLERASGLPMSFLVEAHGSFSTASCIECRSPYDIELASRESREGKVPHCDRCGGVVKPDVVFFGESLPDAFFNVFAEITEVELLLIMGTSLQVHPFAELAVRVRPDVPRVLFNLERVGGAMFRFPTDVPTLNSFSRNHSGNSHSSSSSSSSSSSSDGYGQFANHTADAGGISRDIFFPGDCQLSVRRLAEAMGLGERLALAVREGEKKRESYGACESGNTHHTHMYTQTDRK", "test": "TcSir2rp1 NAD+-dependent deacetylase fluorimetric assay (CycLex kit)", "format": "biochemical"}, "[2]": {"settings": "single dose 10 μM, 200 μM NAD+, 10 μM peptide"}},
  "note": "“Also recorded” adds a separate entry of the source.",
  "data": [
    {"smiles": "O=C1c2cccc3cccc(c23)C(=O)N1CCCNCCCCNCCCNCCCN1C(=O)c2cccc3cccc(c23)C1=O", "note": "[Compound 9, BNIP Spermidine]", "values": [
      {"measurement": "Nephotoxicity (MDCK cells) cytotoxicity", "setting": "MDCK cells", "value": "≥ 100", "unit": "µM"},
      {"measurement": "selectivity ratio", "setting": "[1]", "value": 35.2},
      {"measurement": "In vivo activity (bioluminescence signal vs vehicle)", "setting": "T. cruzi Y strain (Luc+)", "value": "did not exhibit any in vivo activity; also recorded: lack of in vivo activity"},
      {"measurement": "hERG channel functional", "setting": "hERG channel", "value": 99.6, "unit": "%"},
      {"measurement": "Cardiotoxicity (hERG predictor)", "setting": "hERG channel; fluorescence polarization competition, 2 hrs RT", "value": "0.36 ± 0.51", "unit": "%"},
      {"measurement": "inhibition at 50 µM", "setting": "TcSir2rp1; 50 μM", "value": "72 ± 6", "unit": "%"},
      {"measurement": "Inhibition of NAD+-dependent deacetylase activity of TcSir2rp1", "setting": "TcSir2rp1; [2]", "value": "statistically significant inhibition"},
      {"measurement": "inhibition at 10 µM", "setting": "TcSir2rp1; [2]", "value": "~50", "unit": "%"}
    ]}
  ]
}
